# Laboratory results published in patent publication US20190365719A1, “COMBINATION TREATMENTS OF HSP90 INHIBITORS FOR ENHANCING TUMOR IMMUNOGENICITY AND METHODS OF USE THEREOF” (Massachusetts Institute of Technology, priority 2018, published 2019).
# Tests used:
# [1] = Plasma HSP90i concentration in mice by LC/MS; format: in vivo, C57Bl/6 and NOD-SCID mice; settings: 0.5 mg/kg/day in drinking water, both strains (C57Bl/6 and NOD-SCID)
# Protocol: For oral dosing with HSP90i, the average water consumption of the mice was calculated by measuring water bottle weight before and after 72 hours of housing to determine the average consumption per mouse, per day. Across all experiments, C57Cl/6 mice consumed approximately 4 mL every day. Using these water consumption values, and mouse weight, a 4 mg/mL stock solution of NVP-HSP990 (in 100% PEG400) was diluted directly into the drinking water to achieve a target dose of 0.5 mg/kg/day. HSP990 treatment was begun 72 hours prior to implantation of MC38 cells to allow the drug to reach steady state level prior to tumor challenge.
# Serum NVP-HSP990 levels were analyzed by sacrificing mice, performing a cardiac puncture, and isolating approximately 500 μL of whole blood. Blood was transferred to EDTA-coated microtubes and placed on ice. After all samples were collected, they were spun at 10,000×g for 15 min. The supernatant plasma was collected and stored at −80° C. until further processing. 2×10 μL aliquots of serum from each animal was extracted with 40 μL of ice cold acetonitrile and shaken for 30 min at 4° C. The acetonitrile solvent was spiked with 10 nM imatinib as an internal standard for mass spectrometry. Following extraction, samples were spun at 20,000×g for 15 min and the de-proteinated supernatant transferred to a clean Eppendorf tube prior to mass spectrometry analysis. […]
# [2] = Mouse weights and body condition, KP and KPM mice; format: in vivo; settings: four weeks of low dose treatment
# Protocol: FIG. 11A is a box plot showing tumor burden analysis in KP and KPM mice treated with vehicle (control) or Hsp90i. FIG. 11B is a graph showing the longitudinal analysis of mouse weights with vehicle or Hsp90i in the drinking water. The mice were treated for up to 4 weeks with vehicle control or a low dose of HSP90i. In FIG. 11B, KP and KPM mice were combined for vehicle and control treatment groups.
# (§1) KP and KPM mice were infected intratracheally with Adenovirus expressing Cre recombinase from an SPC promoter at a titer of 2×10^8 plaque forming units per mouse to initiate tumor formation. 8 weeks following tumor initiation, the cohort was randomized and vehicle (control) or Hsp90i (NVP-HSP990) was administered in the drinking water at a dose of 0.5 mg/kg/day for 4 weeks prior to analysis at 12 weeks post tumor induction.
# [3] = system: Ctrl and B2m KO MC38 cells; assay: Viability of Ctrl and B2m KO MC38 cells in culture, dye reduction assay; format: cell-based, mouse; settings: 2-day exposure to increasing concentrations
# From the text: FIGS. 6A-B are graphs showing anti-tumor activity of low-dose HSP90i is dependent on functional MHC Class I expression. Ctrl or B2m KO cells were generated by CRISPR-Cas9 mediated gene editing, and B2m KO cells were confirmed to no longer express MHC-I on the cell surface. FIG. 6A is a line graph showing relative number of viable Ctrl and B2m KO cells measured by standard dye reduction assay following 2-day exposure to increasing concentrations of HSP90i; FIG. 6B is a line graph showing size in mm^3 of Ctrl or B2m KO MC38 tumors in mice treated with vehicle (Veh, solid lines) or 0.5 mg/kg/day HSP90i (dotted lines) over 25 days post implantation.
# For CRISPR/Cas9-mediated disruption of B2m, pSpCas9-P2A-GFP plasmid (Addgene #48138) was modified with a control sgRNA sequence ([…]) or an sgRNA targeting B2m ([…]). Log phase MC38 cells were transfected with Ctrl or B2m plasmids using Lipofectamine 2000 (Invitrogen) according to manufacturer's instructions. 24 hours later, single GFP positive cells were sorted into 96-well plates to isolate individual MC38 clones with the desired modification. After 2 weeks, isolated clones were tested by western blot to confirm loss of B2m expression. Ctrl and B2m clones were then passaged through syngeneic mice (C57/B16) to increase the uniformity of tumor establishment and progression in subsequent experiments.
# KP lung tumors = assay: Lung tumor burden in KP mouse model of NSCLC; format: in vivo; settings: KP mice, 0.5 mg/kg/day in drinking water for 4 weeks
# From the text: A genetically engineered mouse model of non-small cell lung cancer (NSCLC) was used. Mice harboring a Cre-recombinase inducible oncogenic Kras, and a floxed p53 allele (KP) develop tumors following intratracheal administration of Cre recombinase. In addition, a hypermutant mouse model of NSCLC (KPM) was used in which mice have a floxed allele of the MutS homolog 2 (Msh2) gene, a critical component of DNA mismatch repair, in addition to the genetic modifications of the KP mouse model. These models enable the interrogation of Hsp90i strategies in a physiologically relevant NSCLC model with and without hypermutation.
# as §1
# Tumor burden was analyzed histologically on tumor sections stained with hemotoxylin and eosin (H&E) using standard protocols at the Koch Institute Histology Facility. Tumor burden was calculated by dividing the total area of tumor tissue over the total area of normal lung tissue present in each sample.
# HSP90β = HSP90β (Homo sapiens, UniProt P08238); settings: cited from earlier work
# Chain of HSP90β (P08238 whole entry): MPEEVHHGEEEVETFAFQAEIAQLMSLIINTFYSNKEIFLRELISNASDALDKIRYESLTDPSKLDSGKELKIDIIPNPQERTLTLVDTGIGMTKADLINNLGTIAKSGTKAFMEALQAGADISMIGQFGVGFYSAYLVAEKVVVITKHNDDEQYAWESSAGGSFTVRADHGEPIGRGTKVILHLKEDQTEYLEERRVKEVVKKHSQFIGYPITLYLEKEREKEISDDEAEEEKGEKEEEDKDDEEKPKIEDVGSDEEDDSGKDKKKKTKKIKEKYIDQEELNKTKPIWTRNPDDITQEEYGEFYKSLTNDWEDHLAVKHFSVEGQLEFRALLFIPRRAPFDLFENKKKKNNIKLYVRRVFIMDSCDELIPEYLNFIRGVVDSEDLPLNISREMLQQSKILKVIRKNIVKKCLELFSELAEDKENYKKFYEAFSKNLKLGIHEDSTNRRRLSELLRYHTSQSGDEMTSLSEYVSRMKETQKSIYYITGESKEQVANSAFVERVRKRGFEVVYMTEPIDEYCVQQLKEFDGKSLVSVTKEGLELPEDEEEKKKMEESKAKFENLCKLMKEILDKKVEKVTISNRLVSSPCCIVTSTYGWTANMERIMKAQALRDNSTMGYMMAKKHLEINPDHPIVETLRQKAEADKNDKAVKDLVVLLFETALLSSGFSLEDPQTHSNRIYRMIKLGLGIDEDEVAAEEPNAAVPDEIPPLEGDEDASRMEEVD
structure (smiles),measurement,setting,value
COc1cccc(-c2cc(F)ccc2[C@H]2Cc3nc(N)nc(C)c3C(=O)N2)n1 [NVP-HSP990],plasma concentration of HSP90i,[1],~20 nM
same,mouse mass or body condition,[2],minimal effects on mouse mass or body condition
same,sensitivity of Ctrl versus B2m KO MC38 cells in culture,[3],no difference in sensitivity
same,lung tumor burden versus vehicle,KP lung tumors,no significant difference
same,IC50,HSP90β,0.8 nM
